Assay results from ChEMBL document CHEMBL1201862, “PubChem BioAssay data set” (2004).
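96-well plates; 48 h exposure; 5 concentrations. Endpoints by linear interpolation between flanking doses. Not reached: highest tested concentration assigned. GI50 marks 50% less growth.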 Activity calls are given as the source filed them. Cut-off read from the data, not from the text of the source: active = GI50 up to about 1.1 µM and inactive = higher.

Assays:
Test in all cases: DTP human tumour cell line panel, 48 h
[1] = tested on: A498
[2] = tested on: ACHN
[3] = tested on: HL-60
[4] = tested on: HOP-62
[5] = tested on: HOP-92
[6] = tested on: HT-29
[7] = tested on: Hs-578T
[8] = tested on: KM12
[9] = tested on: MOLT-4
[10] = tested on: NCI-H226
[11] = tested on: NCI-H23
[12] = tested on: NCI/ADR-RES
[13] = tested on: OVCAR-3
[14] = tested on: RPMI-8226
[15] = tested on: SF-268
[16] = tested on: SF-539
[17] = tested on: SK-OV-3
[18] = tested on: SN12C
[19] = tested on: SR

Measured: GI50

CCOc1cc(NC(C)=O)ccc1C(=O)NNS(=O)(=O)c1ccc(NC(C)=O)cc1
inactive: [1] 51.8 µM | [2] > 100 µM | [3] 22.8 µM | [4] 63.5 µM | [5] 61.9 µM | [6] 47.8 µM | [7] 41.7 µM | [8] 41.5 µM | [9] 37.2 µM | [10] 25.2 µM | [11] 97.3 µM | [12] 69.8 µM | [13] 34.6 µM | [14] 31.7 µM | [15] 88.7 µM | [16] 33.2 µM | [17] 50.9 µM | [18] 46.5 µM | [19] 13.6 µM

CC(C)(C)NC(=O)[C@H]1CC[C@H]2[C@@H]3CC=C4NC(=O)CC[C@]4(C)[C@H]3CC[C@]12C
inactive: [1] > 100 µM | [2] > 100 µM | [3] > 100 µM | [4] > 100 µM | [5] 97.9 µM | [6] > 100 µM | [7] 50.9 µM | [8] > 100 µM | [9] > 100 µM | [10] > 100 µM | [11] 52 µM | [12] 64.9 µM | [13] > 100 µM | [14] > 100 µM | [15] 54.6 µM | [16] > 100 µM | [17] > 100 µM | [18] > 100 µM | [19] > 100 µM

CC[C@@H](/C=C\CCC1(C[C@H](O)CCC=C(C)C)OCCO1)O[Si](C(C)C)(C(C)C)C(C)C
inactive: [1] 32.8 µM | [2] 18.3 µM | [3] 16.7 µM | [4] 34.3 µM | [5] 28.5 µM | [6] 25 µM | [7] 37.3 µM | [8] 37.1 µM | [9] 19.3 µM | [10] 19.6 µM | [11] 26.9 µM | [12] 22.4 µM | [13] 19 µM | [14] 18.4 µM | [15] 21.6 µM | [16] 18.5 µM | [17] 21.8 µM | [18] 18 µM | [19] 21.2 µM

CCOC(=O)/C=C(\C(=O)OCC)n1ccc(=O)n(Cc2cn(CCCCOC(C)=O)nn2)c1=O
inactive: [1] 17.6 µM | [2] 5.33 µM | [4] 20.7 µM | [5] 2.55 µM | [6] 8.05 µM | [7] 22.7 µM | [8] 16 µM | [9] 2.4 µM | [10] 13.6 µM | [11] 16.6 µM | [12] 19.9 µM | [13] 12.7 µM | [14] 8.65 µM | [15] 17.7 µM | [16] 2.34 µM | [17] 32.4 µM | [18] 15.2 µM | [19] 10.1 µM
active: [3] 0.26 µM

Cc1ccc(/C=C2\CCC/C(=C\c3ccc(O)c(CN4CCCCC4)c3)C2=O)cc1
inactive: [1] 3.1 µM | [2] 5.61 µM | [3] 3.52 µM | [4] 15.3 µM | [5] 9.71 µM | [6] 1.87 µM | [7] 7.78 µM | [8] 3.01 µM | [9] 3.6 µM | [10] 7.55 µM | [11] 5.64 µM | [12] 4.07 µM | [13] 10.9 µM | [14] 5.08 µM | [15] 3.14 µM | [16] 9.42 µM | [17] 13.2 µM | [18] 9.82 µM | [19] 3.71 µM
